Here are results for 1 compound from publication PMC11647725, “Discovery of 4-(5-Membered)Heteroarylether-6-methylpicolinamide Negative Allosteric Modulators of Metabotropic Glutamate Receptor Subtype 5” (ACS Medicinal Chemistry Letters, 2024).

The target in one test is T1, human mGlu5 (Homo sapiens, UniProt P41594).
T1 construct: expressed in transfected cells
The test can be described thus: Calcium mobilization assay in human mGlu5-HEK293A cells (NAM, EC80 glutamate). In kind it is cell-based. (Calcium assays in cells follow changes in intracellular calcium, usually with a dye or a luminescent sensor.)

In test [1] the target is Epidermal Growth Factor (EGF) (Homo sapiens, UniProt P00533). The test can be described thus: Lead Profiling Screen, Eurofins Panlabs. In kind it is binding. The following applies: hum, read-out: % inh at 10 μM. An excerpt: (§1) Nonetheless, as a non-aryl/heterobiaryl acetylene mGlu5 NAM with an encouraging in vivo rodent PK profile, we wished to further assess VU6043653 as a novel chemotype. Therefore, we compared metabolites in multiple species to better understand species differences in clearance and metabolism. […] Consistent with the high plasma clearance observed in dogs, high turnover was observed more so in dog hepatocytes than any other species tested (see the Supporting Information for additional details and results). To further evaluate our novel chemotype, the off-target and safety/toxicity profiles for this compound were further investigated.
(§2) Table S2. Lead Profiling Screen – Eurofins Panlabs for VU6043653.
(§3) Assay Name Species % inh at 10 μM […]

Test [2] concerns Calcium Channel L-Type, Dihydropyridine. Briefly: Lead Profiling Screen, Eurofins Panlabs. The test is classed as binding. The following applies: rat.
Source text: as §1, §2, §3

A further test deals with Calcium Channel N-Type (Rattus norvegicus, UniProt Q02294). Briefly: Lead Profiling Screen, Eurofins Panlabs. The test is classed as binding. The following applies: read-out: % inh at 10 μM.
Source text: as §1, §2, §3

Test [3] deals with Glutamate, NMDA, Phencyclidine. Briefly: Lead Profiling Screen, Eurofins Panlabs. The test is classed as binding. The following applies: rat.
Source text: as §1, §2, §3

In a further test the test system is GABAA, Muscimol, Central. Briefly: Lead Profiling Screen, Eurofins Panlabs. The test is classed as binding. The following applies: rat.
Source text: as §1, §2, §3

In a further test the test system is Glutamate, NMDA, Agonism. The test can be described thus: Lead Profiling Screen, Eurofins Panlabs. In kind it is binding. The following applies: rat.
Source text: as §1, §2, §3

T1 sequence (P41594 21-1212): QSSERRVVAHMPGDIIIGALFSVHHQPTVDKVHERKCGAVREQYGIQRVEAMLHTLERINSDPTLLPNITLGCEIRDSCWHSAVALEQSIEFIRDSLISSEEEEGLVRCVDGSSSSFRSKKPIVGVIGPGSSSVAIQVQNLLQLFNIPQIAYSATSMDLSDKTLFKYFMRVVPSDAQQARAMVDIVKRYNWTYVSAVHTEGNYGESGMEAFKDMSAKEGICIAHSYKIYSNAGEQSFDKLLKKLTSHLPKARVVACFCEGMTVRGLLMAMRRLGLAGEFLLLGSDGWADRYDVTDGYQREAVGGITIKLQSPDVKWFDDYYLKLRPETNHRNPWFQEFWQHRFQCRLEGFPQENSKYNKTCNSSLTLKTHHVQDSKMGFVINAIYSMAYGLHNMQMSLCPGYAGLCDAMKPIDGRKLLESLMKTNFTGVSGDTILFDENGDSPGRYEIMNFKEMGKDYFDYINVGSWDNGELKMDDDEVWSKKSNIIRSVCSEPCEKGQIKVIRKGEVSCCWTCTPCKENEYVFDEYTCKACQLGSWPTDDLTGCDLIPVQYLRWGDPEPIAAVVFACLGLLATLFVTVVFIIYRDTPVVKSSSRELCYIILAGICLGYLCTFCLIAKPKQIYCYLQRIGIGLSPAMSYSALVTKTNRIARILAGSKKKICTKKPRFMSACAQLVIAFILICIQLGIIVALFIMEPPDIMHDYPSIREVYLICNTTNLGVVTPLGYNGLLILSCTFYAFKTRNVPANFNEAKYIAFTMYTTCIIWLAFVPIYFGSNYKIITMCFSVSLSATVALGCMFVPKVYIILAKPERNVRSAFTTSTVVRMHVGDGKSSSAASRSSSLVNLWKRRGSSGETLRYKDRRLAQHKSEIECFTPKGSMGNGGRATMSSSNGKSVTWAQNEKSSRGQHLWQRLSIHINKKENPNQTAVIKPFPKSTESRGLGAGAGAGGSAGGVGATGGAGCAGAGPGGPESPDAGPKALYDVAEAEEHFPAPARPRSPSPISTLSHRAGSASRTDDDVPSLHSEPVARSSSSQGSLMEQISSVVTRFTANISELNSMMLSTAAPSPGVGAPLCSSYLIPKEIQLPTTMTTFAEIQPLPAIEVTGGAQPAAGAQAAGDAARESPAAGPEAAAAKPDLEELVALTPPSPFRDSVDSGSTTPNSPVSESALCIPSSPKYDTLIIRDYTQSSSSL
Chain of Epidermal Growth Factor (EGF) (P00533 25-1210): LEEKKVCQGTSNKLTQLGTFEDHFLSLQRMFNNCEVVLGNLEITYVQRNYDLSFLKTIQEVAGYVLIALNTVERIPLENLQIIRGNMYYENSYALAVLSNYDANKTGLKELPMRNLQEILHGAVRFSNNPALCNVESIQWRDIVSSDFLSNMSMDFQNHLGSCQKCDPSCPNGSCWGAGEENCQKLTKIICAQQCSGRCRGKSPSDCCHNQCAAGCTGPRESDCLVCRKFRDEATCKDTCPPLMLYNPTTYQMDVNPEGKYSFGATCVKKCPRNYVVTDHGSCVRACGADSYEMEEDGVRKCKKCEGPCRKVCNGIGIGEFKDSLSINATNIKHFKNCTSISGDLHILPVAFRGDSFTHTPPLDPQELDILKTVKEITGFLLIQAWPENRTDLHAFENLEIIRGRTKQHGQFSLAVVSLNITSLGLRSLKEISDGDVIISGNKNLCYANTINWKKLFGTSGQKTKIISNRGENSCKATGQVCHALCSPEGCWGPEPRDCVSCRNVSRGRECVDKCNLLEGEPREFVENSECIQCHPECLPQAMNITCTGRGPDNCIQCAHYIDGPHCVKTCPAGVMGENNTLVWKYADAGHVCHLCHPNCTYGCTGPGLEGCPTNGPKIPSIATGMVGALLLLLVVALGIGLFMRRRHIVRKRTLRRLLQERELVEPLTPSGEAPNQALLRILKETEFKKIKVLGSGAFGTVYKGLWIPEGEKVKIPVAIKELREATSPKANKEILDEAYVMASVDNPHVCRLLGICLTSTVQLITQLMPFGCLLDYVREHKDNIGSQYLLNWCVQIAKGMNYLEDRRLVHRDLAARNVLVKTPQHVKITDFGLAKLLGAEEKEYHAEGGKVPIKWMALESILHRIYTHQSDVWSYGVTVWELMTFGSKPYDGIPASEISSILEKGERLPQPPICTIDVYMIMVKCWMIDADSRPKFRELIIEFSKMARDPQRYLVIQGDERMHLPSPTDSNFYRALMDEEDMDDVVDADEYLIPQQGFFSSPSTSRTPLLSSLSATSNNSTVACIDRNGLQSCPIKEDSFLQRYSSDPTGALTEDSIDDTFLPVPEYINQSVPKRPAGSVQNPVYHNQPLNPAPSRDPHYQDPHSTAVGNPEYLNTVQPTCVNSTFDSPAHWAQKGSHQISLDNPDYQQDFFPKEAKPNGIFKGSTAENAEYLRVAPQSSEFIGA
Chain of Calcium Channel N-Type (Q02294 whole entry): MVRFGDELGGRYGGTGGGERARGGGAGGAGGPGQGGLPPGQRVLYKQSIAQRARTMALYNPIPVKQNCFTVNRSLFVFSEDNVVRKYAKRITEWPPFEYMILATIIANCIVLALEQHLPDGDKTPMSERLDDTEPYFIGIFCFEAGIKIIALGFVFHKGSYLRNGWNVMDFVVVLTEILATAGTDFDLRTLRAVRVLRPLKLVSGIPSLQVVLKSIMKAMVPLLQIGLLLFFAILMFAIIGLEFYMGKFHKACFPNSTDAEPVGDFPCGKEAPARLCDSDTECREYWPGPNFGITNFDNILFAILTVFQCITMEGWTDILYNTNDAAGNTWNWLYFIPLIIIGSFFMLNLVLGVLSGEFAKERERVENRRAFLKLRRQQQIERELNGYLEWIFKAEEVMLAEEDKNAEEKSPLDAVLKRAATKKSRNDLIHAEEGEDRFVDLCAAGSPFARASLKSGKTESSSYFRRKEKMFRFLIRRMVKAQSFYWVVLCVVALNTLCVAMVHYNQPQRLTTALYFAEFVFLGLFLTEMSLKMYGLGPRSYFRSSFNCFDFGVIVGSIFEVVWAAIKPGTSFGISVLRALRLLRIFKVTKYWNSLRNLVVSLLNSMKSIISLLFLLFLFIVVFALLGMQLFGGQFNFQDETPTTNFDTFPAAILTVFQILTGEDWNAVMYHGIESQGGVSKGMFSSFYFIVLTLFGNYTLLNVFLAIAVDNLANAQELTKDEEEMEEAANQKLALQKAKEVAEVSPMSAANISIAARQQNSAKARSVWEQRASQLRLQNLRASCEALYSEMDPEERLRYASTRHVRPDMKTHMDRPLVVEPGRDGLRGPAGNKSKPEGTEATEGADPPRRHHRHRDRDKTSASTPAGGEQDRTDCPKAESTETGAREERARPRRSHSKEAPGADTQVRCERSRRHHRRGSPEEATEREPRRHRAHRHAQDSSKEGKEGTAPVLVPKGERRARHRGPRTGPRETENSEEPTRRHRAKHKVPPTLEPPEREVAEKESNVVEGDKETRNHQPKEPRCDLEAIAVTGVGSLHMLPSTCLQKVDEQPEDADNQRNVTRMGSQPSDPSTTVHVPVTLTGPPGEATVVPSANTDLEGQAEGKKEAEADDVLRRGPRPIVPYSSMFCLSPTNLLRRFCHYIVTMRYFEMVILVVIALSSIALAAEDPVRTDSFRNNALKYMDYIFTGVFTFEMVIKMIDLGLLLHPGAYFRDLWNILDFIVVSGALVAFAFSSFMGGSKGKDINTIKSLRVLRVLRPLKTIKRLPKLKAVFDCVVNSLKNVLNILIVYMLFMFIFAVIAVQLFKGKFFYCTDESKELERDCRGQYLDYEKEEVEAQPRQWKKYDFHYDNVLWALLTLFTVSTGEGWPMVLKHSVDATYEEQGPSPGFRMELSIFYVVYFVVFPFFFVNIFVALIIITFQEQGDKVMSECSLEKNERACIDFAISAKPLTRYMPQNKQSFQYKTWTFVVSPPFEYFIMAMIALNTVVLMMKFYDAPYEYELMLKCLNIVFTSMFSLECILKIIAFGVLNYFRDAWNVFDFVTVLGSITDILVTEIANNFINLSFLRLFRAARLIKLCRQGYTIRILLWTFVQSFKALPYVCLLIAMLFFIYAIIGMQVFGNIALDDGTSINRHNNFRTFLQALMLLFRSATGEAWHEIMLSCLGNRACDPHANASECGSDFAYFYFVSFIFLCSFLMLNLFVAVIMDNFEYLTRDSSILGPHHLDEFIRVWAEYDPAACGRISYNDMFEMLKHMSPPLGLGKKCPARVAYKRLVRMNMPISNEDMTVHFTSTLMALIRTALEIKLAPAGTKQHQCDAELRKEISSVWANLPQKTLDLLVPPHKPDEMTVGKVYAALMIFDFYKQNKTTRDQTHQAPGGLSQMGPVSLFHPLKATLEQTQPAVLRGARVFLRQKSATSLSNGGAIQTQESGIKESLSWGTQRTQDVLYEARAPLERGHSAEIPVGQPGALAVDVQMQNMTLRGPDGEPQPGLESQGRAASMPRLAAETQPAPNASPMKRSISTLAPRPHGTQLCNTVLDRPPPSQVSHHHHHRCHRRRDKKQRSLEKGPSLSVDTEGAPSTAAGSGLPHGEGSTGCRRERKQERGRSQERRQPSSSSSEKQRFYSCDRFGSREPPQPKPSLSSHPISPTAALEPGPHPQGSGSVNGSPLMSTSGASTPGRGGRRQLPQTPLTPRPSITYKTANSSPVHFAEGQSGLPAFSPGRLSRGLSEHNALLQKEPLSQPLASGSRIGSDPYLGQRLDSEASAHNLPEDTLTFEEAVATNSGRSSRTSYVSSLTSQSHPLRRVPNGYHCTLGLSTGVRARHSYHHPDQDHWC

As a reminder, the pIC50 is −log10 of the IC50, conventionally taken in molar units. One may read the IC50 as the midpoint of a concentration-inhibition curve. Consider `Cc1cc(Oc2cnn(C)c2)cc(C(=O)Nc2ccc(F)cn2)n1` [22iA], for which the “fold increase in hmGlu5 potency” value at human mGlu5 (22fC vs 22bC, 22gA vs 22iA, 22iA vs 22hA, 22iB vs 22hB) was found to be 1.6 fold. On human mGlu5 (efficacy of the NAM to reduce an EC80 response of glutamate, human mGlu5-HEK293A cells), the “% GluMin” value came out at 2%. Also, the pIC50 on human mGlu5 (human mGlu5-HEK293A cells, EC80 fixed concentration of glutamate, n = 2 in triplicate) stood at 6.49. Also, the IC50 on human mGlu5 (human mGlu5-HEK293A cells, EC80 fixed concentration of glutamate, read-out: hmGlu5 IC50) was determined as 325 nM. The inhibition at 10 µM in test [1] is -3%; at Calcium Channel N-Type it was -8%. Besides, the “% inh at 10 μM” value in test [2] was 1%; in test [3] it was -4%; in the test on GABAA, Muscimol, Central, -5%; in the test on Glutamate, NMDA, Agonism, 3%.
